The values that follow come from patent publication US9290477B2, “Inhibitors of β-secretase” (Vitae Pharmaceuticals, Inc., priority 2012, dated 2016).

SMILES strings stand for the structures.

As a reminder, the IC50 is the concentration that gives 50% inhibition.

Assay [1] deals with Abeta1-x production in H4 neuroglioma cell line stably expressing human APP. The assay is described as follows: H4-APPwt Cell-Based Assay (Assay 2), production of Abeta1-x peptides. As to conditions: Table 1; H4 cells expressing human APP, Abeta1-x by AlphaLISA, 18 h. The procedure:
Cellular potency of the compounds was assessed in an assay monitoring production of Abeta1-x peptides in the H4 neuroglioma cell line (ATCC, Cat. #HTB-148) stably expressing human APP. Tested compounds were dissolved in DMSO and pre-diluted in the culture medium (DMEM containing 10% FBS and 1% penicillin/streptomycin) to achieve twice the final concentration of the compounds in the assay. Equal volumes of the 2× solutions of the tested compounds and cell suspension were added to a 96-well culture plate, so that each well contained ˜10,000 cells in a final volume of 200 μl. Final concentration of DMSO in the assay was 0.2%. The plates were incubated for 5 h at 37° C., 5% CO2 to allow cells to attach to the bottom of the wells in the presence of the tested compounds. The media was removed and replaced with fresh media containing tested compounds at the same final concentration. The plates were incubated for 18 h at 37° C., 5% CO2. Concentrations of Ab1-x were determined using AlphaLISA immunoassay (PerkinElmer, Cat. # AL288) following the manufacturer's protocol. Concentrations of Abeta1-x in the wells containing either DMSO or 10 μM beta-secretase inhibitor (BACE inhibitor IV, EMD Bioscience, Cat. #565788) were used as uninhibited and background controls, respectively, for calculating percent inhibition values for each well with the tested compounds.

Assay [2] has as its target truncated human beta-secretase, BACE1 (amino acids 1-454) (Homo sapiens (Human), UniProt P56817). The assay is described as follows: BACE1 Assay (Assay 1), fluorescence quench assay. The assay is classed as biochemical. As to conditions: Table 1; pH 4.4, 1 μM substrate peptide; read-out: BACE 1 IC50 nM (Assay 1). The procedure:
The substrate was dissolved at 1 mg/ml in DMSO.
The assay was performed in the presence of OptiMEM™ (supernatant collected over 24 h and cleared from cellular debris by centrifugation) containing the ectodomain of BACE1, 25 μl water containing the desired 2-fold concentration of test compound and 2% DMSO, 1 μM substrate peptide, 20 mM NaOAc, pH 4.4, and 0.04% Triton-X100 in a total assay volume of 50 μl in a 384 well plate. In general, 25 μl of compound dilution were added to the plate followed by the addition of 10 μl of BACE1 containing OptiMEM™ diluted 1:10 in water with 0.2% Triton X-100. The reaction was started with the addition of 15 μl substrate in NaOAc buffer. The reaction was incubated at rt (dark) in an Envision® multilabel reader (Perkin Elmer) and the cleavage of the substrate was recorded as kinetic for 60 min at ex: 485 nm, em: 538 nm. Blank wells containing no enzyme were included on each plate.
The intensity of fluorescence was regressed against time in order to derive velocities of reaction in all 384 wells. These velocities were used for calculating percent control using an uninhibited control containing 1% DMSO as 100% and a blank control performed in the absence of enzyme as 0%. IC50 values were calculated by fitting percent control vs. test compound concentration using Assay Explorer®.

Sequence of truncated human beta-secretase, BACE1 (amino acids 1-454) (P56817 22-454): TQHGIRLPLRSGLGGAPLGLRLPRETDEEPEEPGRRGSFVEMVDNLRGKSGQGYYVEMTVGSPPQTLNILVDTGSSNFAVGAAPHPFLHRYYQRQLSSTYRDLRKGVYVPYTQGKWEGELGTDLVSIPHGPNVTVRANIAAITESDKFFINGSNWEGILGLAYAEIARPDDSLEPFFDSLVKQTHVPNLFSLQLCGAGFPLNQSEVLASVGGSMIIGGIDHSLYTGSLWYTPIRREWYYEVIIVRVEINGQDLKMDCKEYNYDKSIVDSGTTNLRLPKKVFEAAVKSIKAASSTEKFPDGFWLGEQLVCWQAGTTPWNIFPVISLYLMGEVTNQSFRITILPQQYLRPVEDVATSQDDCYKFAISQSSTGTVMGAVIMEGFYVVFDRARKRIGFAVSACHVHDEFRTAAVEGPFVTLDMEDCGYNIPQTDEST

`CO[C@H]1[C@H](C)C[C@@]2(Cc3ccc(Br)cc3[C@@]23N=C(C)C(N)=N3)C[C@@H]1C` [Example 1]: the IC50 in assay [1] came to 4.5 nM; in assay [2], 4 nM.
For `CO[C@H]1[C@H](C)C[C@@]2(Cc3ccc(C#N)cc3[C@@]23N=C(C)C(N)=N3)C[C@@H]1C` [Example 2], in that order: 4 nM and 3.5 nM.
As for `CC1=N[C@]2(N=C1N)c1cc(C#N)ccc1C[C@@]21C[C@@H](C)[C@H](O)[C@@H](C)C1` [Example 3], the IC50 came to 34 nM in assay [1] and 37 nM in assay [2].
In turn, `CO[C@H]1CC[C@@]2(Cc3ccc(Br)cc3C23N=C(C)C(N)=N3)C[C@@H]1C` (stereo partly shown) [Example 4] showed an IC50 in assay [1] of 6.2 nM.
With `CO[C@H]1CC[C@@]2(Cc3ccc(C#N)cc3[C@@]23N=C(C)C(N)=N3)C[C@@H]1C` [Example 5], the IC50 in assay [1] was found to be 2 nM; in assay [2], 1.5 nM.
For `CO[C@H]1[C@H](C)C[C@@]2(Cc3ccc(-c4cncc(F)c4)cc3[C@@]23N=C(C)C(N)=N3)C[C@@H]1C` [Example 6], in that order: 0.6 nM and 1.5 nM.
For `CC#Cc1cncc(-c2ccc3c(c2)[C@@]2(N=C(C)C(N)=N2)[C@@]2(C3)C[C@@H](C)[C@H](OC)[C@@H](C)C2)c1` [Example 7] the same measures were 4 nM and 8.2 nM.
